Test [1] relates to human embryonic stem cell line H1. Kind of test: Dose titration secondary assay: cell number, H1. The class given is cell-based. The settings on record: positive control (Wnt3a/Activin A) normalized to 1.000; for activity at 0.156 µM / activity at 0.313 µM / activity at 0.625 µM / activity at 1.25 µM / activity at 2.5 µM / activity at 5 µM / activity at 10 µM: Homo sapiens, Embryonic stem cell. Summed up: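 H1 or H9 hESCs on Matrigel treated 2 days with compound (seven 2-fold dilutions from 10 μM) in DMEM:F12, 0.5% FCS, 100 ng/ml Activin A without Wnt3a, then 2 days in 2% FCS plus Activin A. Fixed cells immunostained for Sox17 with Hoechst nuclear counterstain for imaging.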

Test [2] has as its system human embryonic stem cells (H9 or H1 lines). In words: Plate reader (MTS) proliferation assay. The format is cell-based. Conditions: for activity at 10 µM: Homo sapiens, Embryonic stem cell, 96 h; for activity at 10 µM / % Control Value (proliferation): 10 μM test compound with 100 ng/ml activin A on days 1-2, MTS OD490 on day 4, vs Activin A/Wnt3a positive control, strong and moderate hits; for Average: average of replicate raw data; for Raw Data: replicate wells, plate reader proliferation screen of GSK-3B inhibitors. Summed up: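 H9 or H1 cells on Matrigel, washed, then given DMEM:F12 with 0.5% FCS, 100 ng/ml activin A and 10 μM compound (days 1–2), then 2% FCS plus activin A (days 3–4). MTS added day 4, OD490 read after 1.5–4 h at 37 °C; triplicates as percent of activin A/Wnt3a control.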

“And” between values parts separate entries of the source, which are not always exact repeats. Equal entries are not always repeated.

Take `CN(C)CCCn1c2c(c3ccccc31)C1=C(C(=O)NC1=O)N(c1cccc(Cl)c1)C2` [Compound 101, 4-(3-Chlorophenyl)-6-[3-(dimethylamino)propyl]-5,6-dihydropyrrolo[3′,4′:5,6]pyrido[3,4-b]indole-1,3(2H,4H)-dione]: in test [1] (Conc 0.156 μM), the activity at 0.156 µM worked out at 81.2%. Moreover, the activity at 0.313 µM in test [1] (Conc 0.313 μM) worked out at 61.7%. Also, the activity at 0.625 µM in test [1] (Conc 0.625 μM) came out at 69.9%. For the same molecule, the activity at 1.25 µM in test [1] (Conc 1.25 μM) is 116%. In addition, the activity at 2.5 µM in test [1] (Conc 2.5 μM) was found to be 100%. Besides, the activity at 5 µM in test [1] (Conc 5 μM) was 76.8%. Besides, the activity at 10 µM in test [1] (Conc 10 μM) worked out at 49.6%. For the same molecule, in test [2], the activity at 10 µM turned out to be 155% and the Average is given as 1.0316.
`COC(=O)c1cncc(-n2cc(C3=C(c4nn(CCO)c5ccccc45)C(=O)NC3=O)c3cc(Cl)ccc32)c1` [Compound 150, Methyl 5-(5-chloro-3-{4-[1-(2-hydroxyethyl)-1H-indazol-3-yl]-2,5-dioxo-2,5-dihydro-1H-pyrrol-3-yl}-1H-indol-1-yl)pyridine-3-carboxylate]: in test [1] (Conc 0.156 μM), the activity at 0.156 µM was found to be 104%. Moreover, the activity at 0.313 µM in test [1] (Conc 0.313 μM) was found to be 124%. Further, the activity at 0.625 µM in test [1] (Conc 0.625 μM) was found to be 102%. The activity at 1.25 µM in test [1] (Conc 1.25 μM) turned out to be 121%. Also, the activity at 2.5 µM in test [1] (Conc 2.5 μM) came out at 129%. Besides, the activity at 5 µM in test [1] (Conc 5 μM) was 116%. For the same molecule, the activity at 10 µM in test [1] (Conc 10 μM) worked out at 5.2%; in test [2], 63.3%. In test [2], this molecule gave an Average of 0.9475.
In the case of `O=C1NC(=O)C2=C1c1cn(c3ccccc13)CCOCCOCCN(Cc1cccs1)CCn1cc2c2ccccc21` [Compound 133, 14-(2-Thienylmethyl)-6,7,9,10,13,14,15,16-octahydro-12H,23H-5,26:17,22-di(metheno)dibenzo[k,q]pyrrolo[3,4-n][1,4,7,10,19]dioxatriazacyclohenicosine-23,25(24H)-dione], the Cell number in test [1] (Conc 0.156 μM) was 0.890; in test [1] (Conc 0.313 μM), 0.888; in test [1] (Conc 0.625 μM) it was 1.106; in test [1] (Conc 1.25 μM), 1.124; in test [1] (Conc 2.5 μM), 0.592; in test [1] (Conc 5 μM) it was 0.262. The Cell number in test [1] (Conc 10 μM) is reported as 0.096. In test [2], the “% Control Value (proliferation)” value is on record as 149.3%. The molecule further came in with an Average in test [2] of 1.0839. Also, the “Raw Data” value in test [2] was 1.0786 and 1.0891.
With `Cc1c[nH]c(-c2cnc(NCCNc3ccc(C#N)cn3)nc2-c2ccc(Cl)cc2Cl)n1` [Compound 221, 6-[(2-{[4-(2,4-Dichlorophenyl)-5-(4-methyl-1H-imidazol-2-yl)pyrimidin-2-yl]amino}ethyl)amino]pyridine-3-carbonitrile], the activity at 0.156 µM in test [1] (Conc 0.156 μM) was determined as 108%. For the same molecule, the activity at 0.313 µM in test [1] (Conc 0.313 μM) was found to be 113%. Besides, in test [1] (Conc 0.625 μM), the activity at 0.625 µM came to 111%. In addition, the activity at 1.25 µM in test [1] (Conc 1.25 μM) turned out to be 112%. Moreover, the activity at 2.5 µM in test [1] (Conc 2.5 μM) worked out at 89.6%. The activity at 5 µM in test [1] (Conc 5 μM) was 88.9%. In addition, the activity at 10 µM in test [1] (Conc 10 μM) amounted to 19.3%. Further, in test [2], the activity at 10 µM was determined as 131% and the Average was determined as 1.8228. For the same molecule, the “Average (of Raw Data)” value in test [2] (plate reader raw signal, mean of replicate wells, proliferation of human embryonic stem cells) came to 0.4291.
In the case of `O=C1NC(=O)C2=C1Nc1cccc(c1)OCCC/C=C\CCCOc1cccc2c1` [Compound 233, (11Z)-8,9,10,13,14,15-Hexahydro-2,6:17,21-di(metheno)pyrrolo[3,4-h][1,15,7]dioxazacyclotricosine-22,24(1H,23H)-dione], the activity at 0.156 µM in test [1] (Conc 0.156 μM) is 83.2%. Besides, the activity at 0.313 µM in test [1] (Conc 0.313 μM) worked out at 79.1%. In addition, in test [1] (Conc 0.625 μM), the activity at 0.625 µM turned out to be 73.6%. The activity at 1.25 µM in test [1] (Conc 1.25 μM) worked out at 63.6%. Further, the activity at 2.5 µM in test [1] (Conc 2.5 μM) was 43.8%. Besides, the activity at 5 µM in test [1] (Conc 5 μM) is 8.9%. Moreover, in test [1] (Conc 10 μM), the activity at 10 µM is 0%. In test [2], the activity at 10 µM is 93% and the Average amounted to 1.3325.
Consider `CN1CCOCCOCCN(C)CCn2cc(c3ccccc32)C2=C(C(=O)NC2=O)c2cn(c3ccccc23)CC1` [Compound 112, 12,21-Dimethyl-11,12,13,14,16,17,20,21,22,23-decahydro-1H,10H,19H-9,4:24,29-di(metheno)dibenzo[k,q]pyrrolo[3,4-n][1,4,7,10,19,22]dioxatetraazacyclotetracosine-1,3(2H)-dione], for which the Cell number is 0.912 in test [1] (Conc 0.156 μM); 0.959 in test [1] (Conc 0.313 μM); 1.111 in test [1] (Conc 0.625 μM); 1.200 in test [1] (Conc 1.25 μM); 1.005 in test [1] (Conc 2.5 μM); 0.908 in test [1] (Conc 5 μM). The Cell number in test [1] (Conc 10 μM) amounted to 0.996. Moreover, the “% Control Value (proliferation)” value in test [2] stood at 132.8%. Also, the Average in test [2] worked out at 0.9024. In addition, in test [2], the “Raw Data” value was 1.0444 and 0.7603.

Source of the values: patent US20130337564A1, “Treatment of Pluripotent Cells” (Janssen Biotech, Inc., priority 2012, published 2013).
